For test [1], the target named is T1, CDK2 (Homo sapiens, UniProt P24941).
T1 construct: HEK293 clonal lines with CRISPR KI HiBiT tag on CDK2 proteins; host or cells: HEK293 clonal line with CRISPR knock-in HiBiT on CDK2, stably expressing LgBiT
The test is described as follows: CDK2 HiBiT assay (degradation, Dmax). The class given is cell-based. The following applies: HEK293 clonal lines with CRISPR KI HiBiT tag on CDK2, stably expressing LgBiT; 24 hours incubation. In a few lines:
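HEK293 with endogenous HiBiT-tagged CDK2 and stable LgBiT, 5000 cells/well, treated 24 h at 37 °C (compound source plate 30 μM). Luminescence after HiBiT lysis reagent 15 min, normalized to plate controls; 3-parameter logistic fit (Hill slope 1) gives EC50 and Dmax.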
(The HiBiT peptide binds its large partner to form an active luciferase.)

Test [2] concerns the target CRBN-DDB1 (Homo sapiens, UniProt Q96SW2). The test is described as follows: Compound binding to CRBN by HTRF assay. The note with it: CRBN-DDB1 2.5 nM, Cy5-Thalidomide 100 nM probe; Ki from geometric mean of IC50 by Cheng-Prustoff transformation. An outline of the steps: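 HTRF competition used 2.5 nM His-tagged CRBN-DDB1, anti-His terbium cryptate and 100 nM Cy5-thalidomide probe in 20 mM HEPES, 20 mM NaCl, 0.2 mM TCEP, 0.2 mM EDTA, 0.005% Tween20. Compounds ran as 10-point 1:3 series for 30 min at ambient temperature, with the 665/620 nm signal normalized to lenalidomide and DMSO controls. Ki came from geometric-mean IC50 by Cheng-Prusoff.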
In general terms: Time-resolved FRET reads energy transfer from a long-lived donor to a nearby acceptor.

What is called Dmax is the greatest extent of degradation seen. The term pKi denotes −log10 of the Ki, conventionally taken in molar units. High values mean a small Ki, low ones a large Ki.

pKi: −log10 of the molar value.

Chain of CRBN-DDB1 (Q96SW2 whole entry): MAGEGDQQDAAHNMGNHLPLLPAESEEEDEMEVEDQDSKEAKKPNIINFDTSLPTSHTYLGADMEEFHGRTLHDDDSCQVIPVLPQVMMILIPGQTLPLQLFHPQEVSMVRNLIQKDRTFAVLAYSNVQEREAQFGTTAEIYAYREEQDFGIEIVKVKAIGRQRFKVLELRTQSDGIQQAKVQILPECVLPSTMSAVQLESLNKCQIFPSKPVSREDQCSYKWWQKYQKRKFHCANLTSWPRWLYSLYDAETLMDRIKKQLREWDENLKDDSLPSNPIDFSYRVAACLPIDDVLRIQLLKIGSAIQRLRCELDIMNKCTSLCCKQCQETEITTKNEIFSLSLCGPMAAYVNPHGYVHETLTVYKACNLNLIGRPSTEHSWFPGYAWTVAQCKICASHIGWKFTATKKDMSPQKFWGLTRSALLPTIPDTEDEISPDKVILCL
Chain of CRBN-DDB1 (Q16531 whole entry partner): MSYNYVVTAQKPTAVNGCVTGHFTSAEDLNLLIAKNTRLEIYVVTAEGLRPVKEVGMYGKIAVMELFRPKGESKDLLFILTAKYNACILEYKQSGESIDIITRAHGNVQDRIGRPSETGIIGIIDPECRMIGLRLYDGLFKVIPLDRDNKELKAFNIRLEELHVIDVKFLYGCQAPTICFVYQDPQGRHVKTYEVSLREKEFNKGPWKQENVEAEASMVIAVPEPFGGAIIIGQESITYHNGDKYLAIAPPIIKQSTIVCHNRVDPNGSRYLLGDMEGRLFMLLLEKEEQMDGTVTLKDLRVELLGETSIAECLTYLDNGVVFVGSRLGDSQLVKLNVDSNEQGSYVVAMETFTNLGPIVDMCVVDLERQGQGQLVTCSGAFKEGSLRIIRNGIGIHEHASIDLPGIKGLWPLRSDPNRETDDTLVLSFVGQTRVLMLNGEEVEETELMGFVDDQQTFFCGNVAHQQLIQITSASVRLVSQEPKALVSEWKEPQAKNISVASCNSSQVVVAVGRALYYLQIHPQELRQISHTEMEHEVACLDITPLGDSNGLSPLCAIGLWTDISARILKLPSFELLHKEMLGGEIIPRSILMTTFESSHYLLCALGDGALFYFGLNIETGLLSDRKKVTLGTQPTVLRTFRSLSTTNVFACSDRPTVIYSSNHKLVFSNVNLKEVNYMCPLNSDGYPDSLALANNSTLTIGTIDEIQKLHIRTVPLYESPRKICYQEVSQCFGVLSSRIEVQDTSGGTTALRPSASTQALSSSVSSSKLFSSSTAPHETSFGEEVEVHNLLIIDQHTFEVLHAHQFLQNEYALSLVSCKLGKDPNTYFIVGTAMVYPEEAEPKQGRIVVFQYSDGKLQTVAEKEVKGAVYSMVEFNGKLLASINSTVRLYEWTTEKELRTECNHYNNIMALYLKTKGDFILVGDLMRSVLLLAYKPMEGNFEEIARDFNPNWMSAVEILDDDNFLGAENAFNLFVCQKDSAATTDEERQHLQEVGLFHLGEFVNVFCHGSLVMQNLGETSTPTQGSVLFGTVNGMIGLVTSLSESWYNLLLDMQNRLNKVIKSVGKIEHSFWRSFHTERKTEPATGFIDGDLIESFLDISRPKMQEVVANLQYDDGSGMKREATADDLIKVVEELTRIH

On to `O=C1CCC(N2Cc3ccc(CNC(=O)OCc4ccc(CN5CCOCC5)cc4)cc3C2=O)C(=O)N1` (centres unmarked) [Compound 55, {4-[(morpholin-4-yl)methyl]phenyl}methyl N-{[2-(2,6-dioxopiperidin-3-yl)-3-oxo-2,3-dihydro-1H-isoindol-5-yl]methyl}carbamate], for which the Dmax in test [1] was not above 10%. Besides, the pKi in test [2] was not below 7.00.

`O=C1CCC(N2Cc3ccc(CNC(=O)OCc4cccc(SC(F)(F)F)c4)cc3C2=O)C(=O)N1` (centres unmarked) [Compound 56, {3-[(trifluoromethyl)sulfanyl]phenyl}methyl N-{[2-(2,6-dioxopiperidin-3-yl)-3-oxo-2,3-dihydro-1H-isoindol-5-yl]methyl}carbamate] had a Dmax in test [1] of 10 to 50%. This compound also showed a negative logarithm of the Ki (pKi) in test [2] not below 7.00.

For `O=C1CCC(N2Cc3ccc(CNC(=O)OCc4ccc(OC(F)(F)F)cc4F)cc3C2=O)C(=O)N1` (centres unmarked) [Compound 57, [2-fluoro-4-(trifluoromethoxy)phenyl]methyl N-{[2-(2,6-dioxopiperidin-3-yl)-3-oxo-2,3-dihydro-1H-isoindol-5-yl]methyl}carbamate], the Dmax in test [1] was in the range of 10 to 50%. The compound also had a pKi in test [2] not below 7.00.

As for `COc1ccc(-c2cccc(COC(=O)NCc3ccc4c(c3)C(=O)N(C3CCC(=O)NC3=O)C4)c2)cc1` (centres unmarked) [Compound 58, {4′-methoxy-[1,1′-biphenyl]-3-yl}methyl N-{[2-(2,6-dioxopiperidin-3-yl)-3-oxo-2,3-dihydro-1H-isoindol-5-yl]methyl}carbamate], the Dmax in test [1] fell in the range of 10 to 50%. Moreover, in test [2], the pKi is not below 7.00.

Compound `O=C1CCC(N2Cc3ccc(CNC(=O)OCc4ccc(C(F)(F)F)cc4)cc3C2=O)C(=O)N1` (centres unmarked) [Compound 59, [4-(trifluoromethyl)phenyl]methyl N-{[2-(2,6-dioxopiperidin-3-yl)-3-oxo-2,3-dihydro-1H-isoindol-5-yl]methyl}carbamate] displayed a Dmax in test [1] of 10 to 50%. The pKi in test [2] was 6.00 to 7.00.

On to `CC(C)c1ccc(COC(=O)NCc2ccc3c(c2)C(=O)N(C2CCC(=O)NC2=O)C3)cc1` (centres unmarked) [Compound 60, [4-(propan-2-yl)phenyl]methyl N-{[2-(2,6-dioxopiperidin-3-yl)-3-oxo-2,3-dihydro-1H-isoindol-5-yl]methyl}carbamate], for which, in test [1], the greatest degradation seen (Dmax) lay within 10 to 50%. In test [2], this compound gave a pKi not below 7.00.

Consider `O=C1CCC(N2Cc3ccc(CNC(=O)OCc4ccc(OCC(F)(F)F)nc4)cc3C2=O)C(=O)N1` (centres unmarked) [Compound 61, [6-(2,2,2-trifluoroethoxy)pyridin-3-yl]methyl N-{[2-(2,6-dioxopiperidin-3-yl)-3-oxo-2,3-dihydro-1H-isoindol-5-yl]methyl}carbamate], for which, in test [1], the Dmax was in the range of 10 to 50%. The pKi in test [2] is not below 7.00.

With `O=C1CCC(N2Cc3ccc(CNC(=O)OCc4ccc(OCC(F)(F)F)cc4)cc3C2=O)C(=O)N1` (centres unmarked) [Compound 62, [4-(2,2,2-trifluoroethoxy)phenyl]methyl N-{[2-(2,6-dioxopiperidin-3-yl)-3-oxo-2,3-dihydro-1H-isoindol-5-yl]methyl}carbamate], the Dmax in test [1] lay within 10 to 50%. In addition, the negative-log Ki (pKi) in test [2] is not below 7.00.

`CC(C)(c1ccc(COC(=O)NCc2ccc3c(c2)C(=O)N(C2CCC(=O)NC2=O)C3)cc1)C(F)(F)F` (centres unmarked) [Compound 63, [4-(1,1,1-trifluoro-2-methylpropan-2-yl)phenyl]methyl N-{[2-(2,6-dioxopiperidin-3-yl)-3-oxo-2,3-dihydro-1H-isoindol-5-yl]methyl}carbamate] gave a maximal degradation (Dmax) in test [1] of 10 to 50%. Further, in test [2], the pKi was not below 7.00.

In the case of `O=C1CCC(N2Cc3ccc(CNC(=O)OCc4ccc(C5CC5)cc4)cc3C2=O)C(=O)N1` (centres unmarked) [Compound 64, (4-cyclopropylphenyl)methyl N-{[2-(2,6-dioxopiperidin-3-yl)-3-oxo-2,3-dihydro-1H-isoindol-5-yl]methyl}carbamate], the Dmax in test [1] lay in the range of 10 to 50%. In test [2], the negative logarithm of the Ki (pKi) was 6.00 to 7.00.

For the origin of these results see patent US20240299559A1, “COMPOUNDS THAT MEDIATE PROTEIN DEGRADATION AND METHODS OF USE THEREOF” (Monte Rosa Therapeutics, Inc., priority 2021, published 2024).
